Target: T1, BTK protein (Homo sapiens, UniProt Q06187)
T1 construct: endogenous in cells; host or cells: TMD-8 cells
Assay: Measurement of BTK protein degradation ability in TMD-8 cells (Western blotting)
Format: cell-based
Details: harvested after 24 hours; for BTK degradation (%) 1 nM: compound 1 nM; for BTK degradation (%) 10 nM: compound 10 nM; for BTK degradation (%) 100 nM: compound 100 nM
Summary of the method: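 TMD-8 cells (1×10^6/mL) were treated for 24 h with compound at 0.1, 1, 10 μM or 0.0001–0.1 μM, with DMSO as vehicle control. RIPA lysates were normalized by BCA assay. BTK was detected by Western blot with anti-BTK, using GAPDH or β-actin as loading controls, and imaged on LI-COR Odyssey.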

T1 sequence (Q06187 whole entry): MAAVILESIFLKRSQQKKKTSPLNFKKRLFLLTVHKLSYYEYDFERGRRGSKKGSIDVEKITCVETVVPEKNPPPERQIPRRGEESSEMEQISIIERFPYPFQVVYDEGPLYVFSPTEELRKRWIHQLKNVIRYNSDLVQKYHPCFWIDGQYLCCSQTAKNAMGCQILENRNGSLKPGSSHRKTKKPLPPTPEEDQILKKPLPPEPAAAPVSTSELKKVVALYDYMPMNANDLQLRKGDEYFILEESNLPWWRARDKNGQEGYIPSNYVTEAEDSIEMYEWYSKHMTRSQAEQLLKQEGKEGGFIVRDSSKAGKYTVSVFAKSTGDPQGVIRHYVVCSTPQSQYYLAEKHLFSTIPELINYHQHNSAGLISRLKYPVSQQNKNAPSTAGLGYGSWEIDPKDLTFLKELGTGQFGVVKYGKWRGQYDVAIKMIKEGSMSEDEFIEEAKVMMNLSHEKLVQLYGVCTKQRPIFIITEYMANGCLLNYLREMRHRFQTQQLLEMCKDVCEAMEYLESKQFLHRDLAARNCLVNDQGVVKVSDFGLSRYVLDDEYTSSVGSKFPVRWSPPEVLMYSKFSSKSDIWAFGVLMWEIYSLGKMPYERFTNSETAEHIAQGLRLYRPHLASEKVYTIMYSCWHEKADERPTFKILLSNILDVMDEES

Row | Compound | BTK degradation (%) 1 nM | BTK degradation (%) 10 nM | BTK degradation (%) 100 nM
1 | Cc1cc(-c2ccnc(Nc3ccc(N4CCC(CN5CCC(c6ccc(OC7CCC(=O)NC7=O)cn6)CC5)CC4)cc3)n2)ccc1CNC(=O)N1CC(OC(C)C)C1 (stereo not drawn) [Example 124, N-(4-(2-((4-(4-((4-(5-((2,6-dioxopiperidin-3-yl)oxy)pyridin-2-yl)piperidin-1-yl)methyl)piperidin-1-yl)phenyl)amino)pyrimidin-4-yl)-2-methylbenzyl)-3-isopropoxyazetidine-1-carboxamide] | −1.3% | 63.7% | 97.7%
2 | Cc1cc(-c2ccnc(Nc3ccc(N4CCC(CN5CCN(c6ccc(OC7CCC(=O)NC7=O)cn6)CC5)CC4)cc3)n2)ccc1CNC(=O)N1CC(OC(C)C)C1 (stereo not drawn) [Example 125, N-(4-(2-((4-(4-((4-(5-((2,6-dioxopiperidin-3-yl)oxy)pyridin-2-yl)piperazin-1-yl)methyl)piperidin-1-yl)phenyl)amino)pyrimidin-4-yl)-2-methylbenzyl)-3-isopropoxyazetidine-1-carboxamide] | 14.7% | 85.0% | 99.3%
3 | Cc1cc(-c2ccnc(Nc3ccc(N4CCC(CN5CCC(c6ccc(NC7CCC(=O)NC7=O)cn6)CC5)CC4)cc3)n2)ccc1CNC(=O)N1CC(OC(C)C)C1 (stereo not drawn) [Example 126, N-(4-(2-((4-(4-((4-(5-((2,6-dioxopiperidin-3-yl)amino)pyridin-2-yl)piperidin-1-yl)methyl)piperidin-1-yl)phenyl)amino)pyrimidin-4-yl)-2-methylbenzyl)-3-isopropoxyazetidine-1-carboxamide] | 39.7% | 95.7% | 100.0%
4 | Cc1cc(-c2ccnc(Nc3ccc(N4CCC(CN5CCN(c6ccc(NC7CCC(=O)NC7=O)cn6)CC5)CC4)cc3)n2)ccc1CNC(=O)N1CC(OC(C)C)C1 (stereo not drawn) [Example 127, N-(4-(2-((4-(4-((4-(5-((2,6-dioxopiperidin-3-yl)amino)pyridin-2-yl)piperazin-1-yl)methyl)piperidin-1-yl)phenyl)amino)pyrimidin-4-yl)-2-methylbenzyl)-3-isopropoxyazetidine-1-carboxamide] | 43.3% | 94.0% | 99.3%
5 | Cc1cc(-c2ccnc(Nc3ccc(N4CCC(CN5CCC(c6ccc(NC7CCC(=O)NC7=O)cn6)CC5)CC4)cc3)n2)ccc1CNC(=O)c1cnn(C(C)C)c1 (stereo not drawn) [Example 128, N-(4-(2-((4-(4-((4-(5-((2,6-dioxopiperidin-3-yl)amino)pyridin-2-yl)piperidin-1-yl)methyl)piperidin-1-yl)phenyl)amino)pyrimidin-4-yl)-2-methylbenzyl)-1-isopropyl-1H-pyrazole-4-carboxamide] | 51.5% | 94.5% | 99.0%
6 | Cc1cc(-c2ccnc(Nc3ccc(N4CCC(CN5CCN(c6ccc(NC7CCC(=O)NC7=O)cn6)CC5)CC4)cc3)n2)ccc1CNC(=O)c1cnn(C(C)C)c1 (stereo not drawn) [Example 129, N-(4-(2-((4-(4-((4-(5-((2,6-dioxopiperidin-3-yl)amino)pyridin-2-yl)piperazin-1-yl)methyl)piperidin-1-yl)phenyl)amino)pyrimidin-4-yl)-2-methylbenzyl)-1-isopropyl-1H-pyrazole-4-carboxamide] | 49.0% | 95.5% | 100.0%
7 | Cc1cc(-c2ccnc(Nc3ccc(N4CCC(CN5CCC(c6ccc(NC7CCC(=O)NC7=O)cn6)CC5)CC4)cc3)n2)ccc1CNC(=O)c1cnn(C(C)(C)C)c1 (stereo not drawn) [Example 130, 1-(tert-butyl)-N-(4-(2-((4-(4-((4-(5-((2,6-dioxopiperidin-3-yl)amino)pyridin-2-yl)piperidin-1-yl)methyl)piperidin-1-yl)phenyl)amino)pyrimidin-4-yl)-2-methylbenzyl)-1H-pyrazole-4-carboxamide] | 56.5% | 95.0% | 99.5%
8 | Cc1cc(-c2ccnc(Nc3ccc(N4CCC(CN5CCN(c6ccc(NC7CCC(=O)NC7=O)cn6)CC5)CC4)cc3)n2)ccc1CNC(=O)c1cnn(C(C)(C)C)c1 (stereo not drawn) [Example 131, 1-(tert-butyl)-N-(4-(2-((4-(4-((4-(5-((2,6-dioxopiperidin-3-yl)amino)pyridin-2-yl)piperazin-1-yl)methyl)piperidin-1-yl)phenyl)amino)pyrimidin-4-yl)-2-methylbenzyl)-1H-pyrazole-4-carboxamide] | 59.5% | 96.0% | 100.0%
9 | Cc1cc(-c2ccnc(Nc3ccc(N4CCC(CN5CCC(c6ccc(NC7CCC(=O)NC7=O)cn6)CC5)CC4)cc3)n2)ccc1CNC(=O)c1cn(C(C)(C)C)nn1 (stereo not drawn) [Example 132, 1-(tert-butyl)-N-(4-(2-((4-(4-((4-(5-((2,6-dioxopiperidin-3-yl)amino)pyridin-2-yl)piperidin-1-yl)methyl)piperidin-1-yl)phenyl)amino)pyrimidin-4-yl)-2-methylbenzyl)-1H-1,2,3-triazole-4-carboxamide] | 54.5% | 95.5% | 100.0%
10 | Cc1cc(-c2ccnc(Nc3ccc(N4CCC(CN5CCN(c6ccc(NC7CCC(=O)NC7=O)cn6)CC5)CC4)cc3)n2)ccc1CNC(=O)c1cn(C(C)(C)C)nn1 (stereo not drawn) [Example 133, 1-(tert-butyl)-N-(4-(2-((4-(4-((4-(5-((2,6-dioxopiperidin-3-yl)amino)pyridin-2-yl)piperazin-1-yl)methyl)piperidin-1-yl)phenyl)amino)pyrimidin-4-yl)-2-methylbenzyl)-1H-1,2,3-triazole-4-carboxamide] | 60.5% | 96.5% | 100.0%
11 | Cc1cc(-c2ccnc(Nc3ccc(N4CCC(CN5CCC(c6ccc(NC7CCC(=O)NC7=O)cc6)CC5)CC4)cc3)n2)ccc1CNC(=O)c1cnn(C(C)C)c1 (stereo not drawn) [Example 134, N-(4-(2-((4-(4-((4-(4-((2,6-dioxopiperidin-3-yl)amino)phenyl)piperidin-1-yl)methyl)piperidin-1-yl)phenyl)amino)pyrimidin-4-yl)-2-methylbenzyl)-1-isopropyl-1H-pyrazole-4-carboxamide] | 58.5% | 93.5% | 98.5%
12 | Cc1cc(-c2ccnc(Nc3ccc(N4CCC(CN5CCC(c6ccc(NC7CCC(=O)NC7=O)cc6)CC5)CC4)cc3)n2)ccc1CNC(=O)c1cnn(C(C)(C)C)c1 (stereo not drawn) [Example 135, 1-(tert-butyl)-N-(4-(2-((4-(4-((4-(4-((2,6-dioxopiperidin-3-yl)amino)phenyl)piperidin-1-yl)methyl)piperidin-1-yl)phenyl)amino)pyrimidin-4-yl)-2-methylbenzyl)-1H-pyrazole-4-carboxamide] | 59.0% | 94.5% | 99.0%

Source: patent US20250041429A1, “COMPOUND HAVING BTK PROTEIN DEGRADATION ACTIVITY, AND MEDICAL USES THEREOF” (UBIX THERAPEUTICS, INC., priority 2021, published 2025)
